Patent publication US10844077B2, “Thiazolyl-containing compounds for treating proliferative diseases” (Dana-Farber Cancer Institute, Inc., priority 2014, dated 2020)
Values joined by “and” are separate entries in the source; they are usually repeats but may differ in a detail not shown here. Identical values can stand only once.

What was measured:
PFTAIRE1 = PFTAIRE1 (Homo sapiens (Human), UniProt O94921)
Procedure: The cells were harvested and lysed. The lysates were directly labeled with an ATP-biotin probe. Bound kinases were identified and quantitated by ACTIVX as described in Patricelli et al., Biochemistry, 2007, 46(2): 350-358. The compounds were tested in duplicates against duplicate or quadruplicate control samples.

p38a = p38a (Homo sapiens (Human), UniProt Q16539); test: KINATIV assay; format: cell-based; conditions: 1 μM, 90 minutes, BCWM.1 cells
Sequence of p38a (Q16539 whole entry): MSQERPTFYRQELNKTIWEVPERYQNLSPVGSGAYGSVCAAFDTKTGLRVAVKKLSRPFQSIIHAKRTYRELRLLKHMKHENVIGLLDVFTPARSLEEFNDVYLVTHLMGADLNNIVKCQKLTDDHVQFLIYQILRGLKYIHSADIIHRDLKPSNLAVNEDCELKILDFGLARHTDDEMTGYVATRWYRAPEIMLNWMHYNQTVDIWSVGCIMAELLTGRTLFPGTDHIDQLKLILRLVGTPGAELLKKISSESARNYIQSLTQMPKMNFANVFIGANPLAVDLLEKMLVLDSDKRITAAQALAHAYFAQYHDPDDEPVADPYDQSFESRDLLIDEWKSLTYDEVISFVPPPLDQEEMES
Outline: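 Quantitation by ACTIVX of probe-bound kinases from cell lysates labeled directly with ATP-biotin; compounds run in duplicate, controls in duplicate or quadruplicate.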

Sequence of PFTAIRE1 (O94921 whole entry, looked up): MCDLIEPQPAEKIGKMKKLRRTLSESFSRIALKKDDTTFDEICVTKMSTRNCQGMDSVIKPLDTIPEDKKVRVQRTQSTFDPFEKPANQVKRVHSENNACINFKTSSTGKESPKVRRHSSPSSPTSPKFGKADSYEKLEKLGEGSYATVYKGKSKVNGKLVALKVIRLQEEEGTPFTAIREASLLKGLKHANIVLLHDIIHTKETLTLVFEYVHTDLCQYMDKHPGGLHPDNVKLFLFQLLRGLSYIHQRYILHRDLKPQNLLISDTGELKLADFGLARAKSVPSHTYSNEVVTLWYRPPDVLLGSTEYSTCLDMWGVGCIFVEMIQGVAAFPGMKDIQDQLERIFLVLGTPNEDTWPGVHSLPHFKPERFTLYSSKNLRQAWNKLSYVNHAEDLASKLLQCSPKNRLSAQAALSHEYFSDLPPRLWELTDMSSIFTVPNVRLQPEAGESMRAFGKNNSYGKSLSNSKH

C=CC(=O)N1CC[C@@H](Nc2nccc(Nc3ncc(C(=O)Nc4c(C)cccc4C)s3)n2)C1 [Example I-4]
% change of MS signal compared to control sample (PFTAIRE1): 15.3% and 6.3%

C=CC(=O)N1CCCCC(Nc2nccc(Nc3ncc(C(=O)Nc4c(C)cccc4C)s3)n2)C1 (centres unmarked) [Example I-7]
% change of MS signal compared to control sample (p38a): 69.8% and 51.2%
